# Data: patent US20250319110A1, “SURFACE CALR CHEMICAL INDUCERS” (THE CHILDREN'S MEDICAL CENTER CORPORATION, priority 2022, published 2025)
# Counter-ions that a name gives are not always drawn. Where a SMILES comes first, the peptide text is derived from it. The star is where a group is joined. Cbz = O=C(OCc1ccccc1)*
# System: reactive oxygen species (ROS)
# Test: ROS production by CALR agonists (ROS+ / ROS− classification of screen hits)
# Format: cell-based, human
# Settings: CALR agonists that do not stimulate ROS production or only to negligible levels
# Protocol: To systematically evaluate pathways triggering surface CALR, a panel of 1200 bioactive small molecules in human cells were screened. Surface CALR expression was evaluated by imaging a CALR-antibody coupled with a fluorophore and by a SPLIT-TURBO ID construct targeting the association of […] (Cadherin 2), a membrane protein, and CALR. 93 out of 1200 compounds screened increased surface CALR with a robust dosage response. Chemical annotation further supported that ROS+ drugs were associated with FOXO1A and oxidative stress, while the ROS− drugs were associated with G protein-coupled receptor signaling and cellular calcium ion homeostasis. In vivo ROS− drugs induced macrophage-stem cell interaction and grooming behavior, while ROS+ drugs enhanced the macrophage-stem cell interaction, but not grooming. Collectively, the work described herein has identified ROS as a signal that upregulates surface CALR and promotes macrophage-stem cell interactions, safeguarding the development of stem cells that are stressed or damaged.
# As described in the examples herein, some CALR agonists do stimulate reactive oxygen species (ROS) production; or stimulate ROS production to statistically significant levels. This group of CALR agonists are referred to herein as “ROS+ CALR agonists.” ROS+ CALR agonists include Ibudilast; zaprinast; FK-520; AG1478; bongkrekic acid; GW9508; fusidic acid; beta-lapachone; fusaric acid; fenspiride; zardaverine; docosahexaenoic acid, loxoprofen; AG1480; flufenamic acid; and MG-132.
# This group of CALR agonists are referred to herein as “ROS− CALR agonists.” ROS-CALR agonists include DL-threo-1-Phenyl-2-palmitoylamino-3-morpholino-1-propanol; cambinol; ganciclovir; 8-bromo-GMP; arvanil; thiocitrulline; and isoguvacine. In some embodiments, an at least one ROS− CALR agonist can be selected from the group consisting of: DL-threo-1-Phenyl-2-palmitoylamino-3-morpholino-1-propanol; ganciclovir; 8-bromo-GMP; arvanil; thiocitrulline; and isoguvacine.
# A chemical screen was conducted to identify surface CALR inducers in a ROS-associated and a ROS-independent manner (FIG. 4). Hits from the screen was validated in vivo as CALR inducers (FIGS. 5A-5B). ROS− drugs tended to induce macrophage-stem cell interaction and proliferation. ROS+ drugs tended to promote dooming (FIGS. 6A-6C).
row,SMILES,ROS production class of CALR agonist
1,CCCCCCCCCCCCCCCC(=O)N[C@H](CN1CCOCC1)[C@H](O)c1ccccc1 (racemic) [DL-threo-1-Phenyl-2-palmitoylamino-3-morpholino-1-propanol],ROS−
2,"Nc1nc2c(nc(Br)n2[C@@H]2O[C@H](COP(=O)(O)O)[C@@H](O)[C@H]2O)c(=O)[nH]1 [8-bromo-GMP, 8-bromo-guanosine monophosphate]",ROS−
3,"CCCCC/C=C\C/C=C\C/C=C\C/C=C\CCCC(=O)NCc1ccc(O)c(OC)c1 [arvanil, N-vanillylarachidonamide]",ROS−
4,"O=c1[nH]c(=S)[nH]c(-c2ccccc2)c1Cc1c(O)ccc2ccccc12 [cambinol, 5-[(2-hydroxynaphthalen-1-yl)methyl]-6-phenyl-2-sulfanylidene-1H-pyrimidin-4-one]",ROS−
5,"Nc1nc(O)c2ncn(COC(CO)CO)c2n1 [ganciclovir, 2-Nor-2′-deoxyguanosine]",ROS−
6,"O=C(O)C1=CCNCC1 [isoguvacine, 1,2,3,6-tetrahydropyridine-4-carboxylic acid]",ROS−
7,"CSC(=N)NCCC[C@H](N)C(=O)O.Cl.Cl [thiocitrulline, N^5-[imino(methylthio)methyl]-L-ornithine, dihydrochloride]",ROS−

# Same assay, conditions: CALR agonists that stimulate ROS production
row,SMILES,ROS production class of CALR agonist
1,"CC(C(=O)O)c1ccc(CC2CCCC2=O)cc1 (racemic) [loxoprofen, (RS)-2-{4-[(2-oxocyclopentyl)methyl]phenyl}propanoic acid]",ROS+
2,"COc1cc2ncnc(Nc3cccc(Cl)c3)c2cc1OC [AG1478, N-(3-chlorophenyl)-6,7-dimethoxyquinazolin-4-amine]",ROS+
3,"CC[C@@H]1/C=C(\C)C[C@H](C)C[C@H](OC)[C@H]2O[C@@](O)(C(=O)C(=O)N3CCCC[C@H]3C(=O)O[C@H](/C(C)=C/[C@@H]3CC[C@@H](O)[C@H](OC)C3)[C@H](C)[C@@H](O)CC1=O)[C@H](C)C[C@@H]2OC [FK-520, ascomycin]",ROS+
4,"O=C(O)CCc1ccc(NCc2cccc(Oc3ccccc3)c2)cc1 [GW9508, 4-[[(3-phenoxyphenyl)methyl]amino]-benzenepropanoic acid]",ROS+
5,"CC(C)C(=O)c1c(C(C)C)nn2ccccc12 [Ibudilast, 2-methyl-1-(2-propan-2-ylpyrazolo[1,5-a]pyridin-3-yl)propan-1-one]",ROS+
6,"CC(C)C[C@@H](C=O)NC(=O)[C@H](CC(C)C)NC(=O)[C@H](CC(C)C)NC(=O)OCc1ccccc1 [MG-132, benzyl N-[(2S)-4-methyl-1-[[(2S)-4-methyl-1-[[(2S)-4-methyl-1-oxopentan-2-yl]aamino]-1-oxopentan-2-yl]amino]-1-oxopentan-2-yl]carbamate] (Cbz-Leu-Leu-Leu-aldehyde)",ROS+
7,"CC1(C)CCC2=C(O1)c1ccccc1C(=O)C2=O [beta-lapachone, 2,2-dimethyl-3,4-dihydrobenzo[h]chromene-5,6-dione]",ROS+
8,"CO[C@H](C/C=C\C=C\CC/C=C/C[C@H](C)/C=C/C(=C\C(=O)O)CC(=O)O)/C(C)=C\C=C(/C)C(=O)O [bongkrekic acid, (2E,4Z,6R,8Z,10E,14E,17S,18E,20Z)-20-(carboxymethyl)-6-methoxy-2,5,17-trimethyldocosa-2,4,8,10,14,18,20-heptaenedioic acid]",ROS+
9,CC/C=C\C/C=C\C/C=C\C/C=C\C/C=C\C/C=C\CCC(=O)O [docosahexaenoic acid],ROS+
10,"O=C1NCC2(CCN(CCc3ccccc3)CC2)O1 [fenspiride, 8-(2-phenylethy)-1-oxa-3,8-diazaspiro[4.5]decan-2-one, monohydrochloride]",ROS+
11,"O=C(O)c1ccccc1Nc1cccc(C(F)(F)F)c1 [flufenamic acid, 2-[3-(trifluoromethyl)anilino]benzoic acid]",ROS+
12,CCCCc1ccc(C(=O)O)nc1 [fusaric acid],ROS+
13,CC(=O)O[C@H]1C[C@@]2(C)[C@@H](C[C@@H](O)[C@H]3[C@@]4(C)CC[C@@H](O)[C@@H](C)[C@@H]4CC[C@@]32C)/C1=C(\CCC=C(C)C)C(=O)O [fusidic acid],ROS+
14,"CCCOc1ccccc1-c1nc2n[nH]nc2c(=O)[nH]1 [zaprinast, 5-(2-propoxyphenyl)-2,6-dihydrotriazolo[4,5-d]pyrimidin-7-one]",ROS+
15,"COc1cc(-c2ccc(=O)[nH]n2)ccc1OC(F)F [zardaverine, 6-[4-(difluoromethoxy)-3-methoxyphenyl]-3(2H)-pyridazinone]",ROS+
